In ChEMBL document CHEMBL3272229, “Molecular properties of the adrenergic alpha receptor. 2. Optimum covalent inhibition by two different prototypes of polyamine disulfides” (J Med Chem, 1978) one finds inhibition and Activity data, which are given here for 34 compounds.

Activity calls are given as the source filed them. The calls are words filed in the database; no cut-off is given here.

Test [1] addresses T1, Adrenergic receptor alpha (Rattus norvegicus) (UniProt P15823+P23944+P43140+P22086+P19328+P22909). The experiment in a line: Irreversible inhibition of alpha adrenergic receptor in rat vas deferens assessed as inhibition of NE-induced contractions at 2 x 10' -5 M after 30 mins relative to N1,N1'-(2,2'-disulfanediylbis(ethane-2,1-diyl))dioctane-1,8-diamine tetrahydrochloride. Format: tissue-based.

Test [2] has as its target T1, Adrenergic receptor alpha (Rattus norvegicus). The experiment in a line: Irreversible inhibition of alpha adrenergic receptor in rat vas deferens assessed as inhibition of NE-induced contractions at 2 x 10' -5 M after 30 mins relative to [N,N'-bis(o-methoxybenzylamino-n-hexyl)cystamine. The format is tissue-based.
Test [3] has the same target. The experiment in a line: Irreversible inhibition of alpha adrenergic receptor in rat vas deferens assessed as inhibition of NE-induced contractions at <20 uM after 30 mins. The format is tissue-based.
For test [4], the species on record is Cavia porcellus. The experiment in a line: Effect on muscarinic receptor in guinea pig atrium assessed as reduction in carbachol-mediated ionotropic/chronotropic potency at 0.17 uM after 30 to 60 mins. Format: tissue-based. Details: scale not given: the % may be the effect or the level left. Particulars: Cardiac atrium.
Test [5] is filed under the species Cavia porcellus. The experiment in a line: Effect on muscarinic receptor in guinea pig atrium assessed as reduction in carbachol-mediated ionotropic/chronotropic potency at 10 uM after 17 mins. Particulars: Cardiac atrium. Format: tissue-based.
Test [6] is filed under the species Cavia porcellus. The experiment in a line: Antagonist activity at alpha adrenergic receptor in guinea pig atrium assessed as inhibition of 30 uM NE-induced contractions treated at 3 uM for 30 mins followed by washout. Format: tissue-based. As to conditions: Cardiac atrium.
For test [7], the species on record is Cavia porcellus. The experiment in a line: Effect on muscarinic acetylcholine receptor in guinea pig ileum assessed as reduction in acetylcholine-induced contractile response at 7 uM after 20 to 40 mins. The format is tissue-based. Details: scale not given: the % may be the effect or the level left.
Test [8] is filed under the species Oryctolagus cuniculus. The experiment in a line: Effect on histamine receptor in potassium-contracted rabbit aortic strip assessed as change in histamine-mediated response at 10 uM after 30 mins.
The species named for test [9] is Cavia porcellus. The experiment in a line: Effect on muscarinic receptor in guinea pig atrium assessed as reduction in carbachol-mediated ionotropic/chronotropic potency at 30 uM after 26 mins. Format: tissue-based. As to conditions: Cardiac atrium.
The species entered for test [10] is Oryctolagus cuniculus. The experiment in a line: Effect on beta adrenergic receptor in potassium-contracted rabbit aortic strip assessed as change in isoprenaline-mediated response at 10 uM after 30 mins.
Test [11] is filed under the species Oryctolagus cuniculus. The experiment in a line: Irreversible inhibition of alpha adrenergic receptor in rabbit aortic strip assessed as inhibition of NE-induced contractions at 1 to 3 uM after 18 hrs.
The species named for test [12] is Cavia porcellus. The experiment in a line: Effect on muscarinic receptor in guinea pig atrium assessed as reduction in carbachol-mediated ionotropic/chronotropic potency at 0.24 uM after 30 to 60 mins. The format is tissue-based. As to conditions: Cardiac atrium. Details: scale not given: the % may be the effect or the level left.
The species entered for test [13] is Cavia porcellus. The experiment in a line: Potentiation of NE-mediated alpha adrenergic receptor activity in guinea pig atrium at 10 to 30 uM. As to conditions: Cardiac atrium. Format: tissue-based.
Test [14] is filed under the species Oryctolagus cuniculus. The experiment in a line: Effect on 5-HT receptor in potassium-contracted rabbit aortic strip assessed as change in 5-HT-mediated response at 10 uM after 30 mins.
The species named for test [15] is Cavia porcellus. The experiment in a line: Antagonist activity at alpha adrenergic receptor in guinea pig atrium assessed as reduction in tyramine-mediated ionotropic/chronotropic potency at 10 to 30 uM. Format: tissue-based. As to conditions: Cardiac atrium.
For test [16], the species on record is Oryctolagus cuniculus. The experiment in a line: Irreversible inhibition of alpha adrenergic receptor in rabbit aortic strip assessed as inhibition of NE-induced contractions at 0.3 uM after 90 mins.
The species named for test [17] is Cavia porcellus. The experiment in a line: Antagonist activity at muscarinic receptor in guinea pig atrium assessed as reduction in butyrylcholine-induced response at 10 to 30 uM. Format: tissue-based. Particulars: Cardiac atrium.
For test [18], the species on record is Cavia porcellus. The experiment in a line: Effect on muscarinic acetylcholine receptor in guinea pig ileum assessed as reduction in acetylcholine-induced contractile response treated at 30 uM for 40 mins measured after 20 mins post washout. The format is tissue-based.
The species entered for test [19] is Cavia porcellus. The experiment in a line: Potentiation of NE-mediated alpha adrenergic receptor activity in guinea pig atrium. Format: tissue-based. As to conditions: Cardiac atrium.
For test [20], the species on record is Cavia porcellus. The experiment in a line: Antagonist activity at alpha adrenergic receptor in guinea pig atrium assessed as reduction in tyramine-mediated ionotropic/chronotropic potency. Format: tissue-based. As to conditions: Cardiac atrium.
The species entered for test [21] is Cavia porcellus. The experiment in a line: Antagonist activity at muscarinic receptor in guinea pig atrium assessed as reduction in butyrylcholine-induced response. The format is tissue-based. As to conditions: Cardiac atrium.
The species named for test [22] is Cavia porcellus. The experiment in a line: Antagonist activity at alpha adrenergic receptor in guinea pig atrium assessed as inhibition of 300 uM NE-induced contractions treated at 0.147 uM. Format: tissue-based. Particulars: Cardiac atrium.
The species named for test [23] is Cavia porcellus. The experiment in a line: Antagonist activity at alpha adrenergic receptor in guinea pig atrium assessed as inhibition of 30 uM NE-induced contractions treated at 0.147 uM. The format is tissue-based. Particulars: Cardiac atrium.

Usually inhibition stands for the change of the read-out against control, counted positive when it falls. As for `NCCCCCCCCCNCCSSCCNCCCCCCCCCN`, the inhibition in test [1] and in [2] was 92% throughout.

Turning to `Clc1cccc(Cl)c1CNCCCCCCCNCCSSCCNCCCCCCCNCc1c(Cl)cccc1Cl`, the inhibition in test [1] and in [2] was 39% each time.

As to `C=CCOc1ccccc1CNCCCCCCNCCSSCCNCCCCCCNCc1ccccc1OCC=C`, the inhibition in [1] and in test [2] was 71% throughout.

`Clc1ccccc1CNCCCCCCNCCSSCCNCCCCCCNCc1ccccc1Cl`: the inhibition in test [1] and in test [2] was 44% throughout.

In the case of `COc1cc(CNCCCCCCNCCSSCCNCCCCCCNCc2cc(OC)cc(OC)c2)cc(OC)c1`, the inhibition in [1] and in [2] was 41% throughout.

Turning to `COc1cccc(CNCCCCCCNCCSSCCNCCCCCCNCc2cccc(OC)c2)c1`, the inhibition in test [1] and in test [2] was 72% each time.

`NCCCCCCCCNCCSSCCNCCCCCCCCN`: the inhibition in test [2] stood at 100%. Further, the inhibition result in [3] is “Active”.

For `NCCCCCCCCCCNCCSSCCNCCCCCCCCCCN`, the inhibition in [1] and in test [2] was 56% throughout.

As to `Cc1ccccc1CNCCCCCCNCCSSCCNCCCCCCNCc1ccccc1C`, the inhibition in test [1] and in [2] was 69% each time.

As for `Clc1cccc(Cl)c1CNCCCCCCNCCSSCCNCCCCCCNCc1c(Cl)cccc1Cl`, the inhibition in test [1] and in [2] was 40% each time.

On to `Cc1ccccc1CNCCCCCCCCNCCSSCCNCCCCCCCCNCc1ccccc1C`, for which the inhibition in test [1] and in [2] was 49% each time.

`COc1ccccc1CNCCCCCCNCCCCCCNCCCCCCNCc1ccccc1OC`: the Activity in the test listed under Cavia porcellus [4] amounted to 50%. Besides, the result in the test listed under Cavia porcellus [5] was inactive.

With `COc1ccccc1CNCCCCCCCCNCCSSCCNCCCCCCCCNCc1ccccc1OC`, the inhibition in [1] and in test [2] was 41% in each case.

On to `COc1ccccc1CNCCCCCCCNCCSSCCNCCCCCCCNCc1ccccc1OC`, for which the inhibition in [1] and in test [2] was 71% in each case.

For `CCOc1ccccc1CNCCCCCCNCCSSCCNCCCCCCNCc1ccccc1OCC`, the inhibition in test [1] and in test [2] was 81% in each case.

Turning to `COc1ccc(OC)c(CNCCCCCCNCCSSCCNCCCCCCNCc2cc(OC)ccc2OC)c1`, the inhibition in test [1] and in test [2] was 76% in each case.

Turning to `COc1ccccc1CNCCCCCCN(C)CCSSCCN(C)CCCCCCNCc1ccccc1OC`, the inhibition in test [1] and in test [2] was 48% throughout.

`CN(CCCCCCCCN)CCSSCCN(C)CCCCCCCCN`: the inhibition in test [1] and in test [2] was 90% throughout.

Take `COc1ccc(CNCCCCCCNCCSSCCNCCCCCCNCc2ccc(OC)c(OC)c2)cc1OC`: the inhibition in test [1] and in test [2] was 24% throughout.

In the case of `NCCCCCNCCSSCCNCCCCCN`, the inhibition in test [1] and in test [2] was 10% throughout.

With `COc1ccccc1CNCCCCCCNCCSSCCNCCCCCCNCc1ccccc1OC`, the inhibition entry in the test listed under Cavia porcellus [6], in the test filed under Cavia porcellus [15] and in the test listed under Cavia porcellus [17] was “inactive” throughout. The Activity in the test listed under Cavia porcellus [7] and in the test listed under Cavia porcellus [12] was 50% each time. The inhibition in [1] came out at 100%. Further, the outcome in the test filed under Oryctolagus cuniculus [8], in the test filed under Cavia porcellus [9], in the test listed under Oryctolagus cuniculus [10], in the test listed under Cavia porcellus [13], in the test listed under Oryctolagus cuniculus [14] and in the test filed under Cavia porcellus [18] was inactive. The inhibition result in the test filed under Oryctolagus cuniculus [11] and in the test filed under Oryctolagus cuniculus [16] was “Active” in each case.

With `c1ccc(CNCCCCCCCNCCSSCCNCCCCCCCNCc2ccccc2)cc1`, the inhibition in test [1] and in test [2] was 58% in each case.

On to `NCCCCCCNCCSSCCNCCCCCCN`, for which the inhibition in test [1] and in test [2] was 27% throughout.

For the compound `COc1cccc(CNCCCCCCNCCSSCCNCCCCCCNCc2cccc(OC)c2OC)c1OC`, the inhibition in test [1] and in [2] was 26% each time.

Take `Clc1ccccc1CNCCCCCCCNCCSSCCNCCCCCCCNCc1ccccc1Cl`: the inhibition in test [1] and in test [2] was 36% in each case.

For the compound `COc1ccc(CNCCCCCCNCCSSCCNCCCCCCNCc2ccc(OC)cc2OC)c(OC)c1`, the inhibition in test [1] and in test [2] was 26% throughout.

For the compound `CC(COc1ccccc1)N(CCCl)Cc1ccccc1` (stereo not drawn), the result in the test listed under Cavia porcellus [19] was Active. Moreover, the inhibition result in the test filed under Cavia porcellus [20], in the test filed under Cavia porcellus [21], in the test filed under Cavia porcellus [22] and in the test listed under Cavia porcellus [23] was “Active” in each case.

`Oc1ccc(CNCCCCCCNCCSSCCNCCCCCCNCc2ccc(O)c(O)c2)cc1O`: the inhibition in test [1] and in test [2] was 98% in each case.

In the case of `COc1ccccc1CNCCCCCNCCSSCCNCCCCCNCc1ccccc1OC`, the inhibition in [1] and in test [2] was 59% in each case.

As for `NCCCCCCCCCCCCNCCSSCCNCCCCCCCCCCCCN`, the inhibition in test [1] and in test [2] was 24% throughout.

On to `NCCCCCCCNCCSSCCNCCCCCCCN`, for which the inhibition in test [1] and in test [2] was 63% in each case.

Consider `COc1ccc(CNCCCCCCNCCSSCCNCCCCCCNCc2ccc(OC)cc2)cc1`, for which the inhibition in [1] and in test [2] was 81% in each case.

Turning to `Cc1ccccc1CNCCCCCCCNCCSSCCNCCCCCCCNCc1ccccc1C`, the inhibition in test [1] and in [2] was 56% in each case.

Regarding `c1ccc(CNCCCCCCNCCSSCCNCCCCCCNCc2ccccc2)cc1`, the inhibition in test [1] and in test [2] was 90% throughout.
